The target of experiment [1] is T1, Protein deacetylase HDAC6 (Homo sapiens, UniProt Q9UBN7).
T1 sequence (Q9UBN7 whole entry): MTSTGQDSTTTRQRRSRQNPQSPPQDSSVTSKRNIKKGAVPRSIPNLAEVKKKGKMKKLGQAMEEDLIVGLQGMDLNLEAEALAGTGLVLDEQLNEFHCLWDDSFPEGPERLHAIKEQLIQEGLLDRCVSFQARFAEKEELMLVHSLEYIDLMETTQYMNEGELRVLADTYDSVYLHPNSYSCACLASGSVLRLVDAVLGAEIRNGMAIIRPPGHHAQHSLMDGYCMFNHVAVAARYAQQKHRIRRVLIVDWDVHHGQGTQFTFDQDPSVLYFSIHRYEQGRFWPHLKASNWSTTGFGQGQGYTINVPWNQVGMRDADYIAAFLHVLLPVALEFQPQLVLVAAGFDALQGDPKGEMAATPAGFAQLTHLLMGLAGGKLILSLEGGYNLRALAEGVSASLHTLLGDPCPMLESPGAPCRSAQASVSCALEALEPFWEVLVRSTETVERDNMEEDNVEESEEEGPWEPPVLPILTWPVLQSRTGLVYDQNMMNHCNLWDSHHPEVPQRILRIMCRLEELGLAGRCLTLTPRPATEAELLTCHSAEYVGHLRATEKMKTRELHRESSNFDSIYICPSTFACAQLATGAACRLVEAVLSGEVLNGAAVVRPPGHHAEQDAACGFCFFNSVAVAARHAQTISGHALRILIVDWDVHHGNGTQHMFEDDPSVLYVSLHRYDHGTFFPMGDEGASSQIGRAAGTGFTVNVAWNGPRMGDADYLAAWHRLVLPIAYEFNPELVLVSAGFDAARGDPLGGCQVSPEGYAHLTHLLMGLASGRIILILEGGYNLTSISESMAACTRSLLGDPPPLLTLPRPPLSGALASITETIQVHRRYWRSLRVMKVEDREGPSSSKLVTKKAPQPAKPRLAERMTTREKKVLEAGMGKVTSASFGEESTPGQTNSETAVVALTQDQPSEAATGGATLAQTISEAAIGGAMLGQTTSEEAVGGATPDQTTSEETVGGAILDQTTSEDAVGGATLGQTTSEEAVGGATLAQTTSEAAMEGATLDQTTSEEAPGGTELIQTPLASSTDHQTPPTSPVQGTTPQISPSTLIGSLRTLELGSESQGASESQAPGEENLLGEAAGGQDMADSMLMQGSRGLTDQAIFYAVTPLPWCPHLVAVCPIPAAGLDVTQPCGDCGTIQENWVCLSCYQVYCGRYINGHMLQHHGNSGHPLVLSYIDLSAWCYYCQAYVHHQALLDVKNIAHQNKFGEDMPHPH
Briefly: Inhibition of human recombinant His6-tagged and GST-fuses HDAC6 expressed in insect High5 cells using Boc-Lys(eacetyl)- AMC as substrate after 3 hrs by fluorescence assay.

Experiment [2] addresses Histone deacetylase 1 (Homo sapiens, UniProt Q13547). Briefly: Inhibition of human recombinant His6-tagged and GST-fuses HDAC1 expressed in insect High5 cells using Ac-Lys-Tyr-Lys(e-acetyl)-AMC as substrate after 24 hrs by fluorescence assay.
Experiment [3] deals with Histone deacetylase 3 (Homo sapiens, UniProt O15379). Briefly: Inhibition of human recombinant His6-tagged and GST-fuses HDAC3 expressed in insect High5 cells using Ac-Lys-Tyr-Lys(e-acetyl)-AMC as substrate after 24 hrs by fluorescence assay.
Sequence of Histone deacetylase 3 (O15379 whole entry): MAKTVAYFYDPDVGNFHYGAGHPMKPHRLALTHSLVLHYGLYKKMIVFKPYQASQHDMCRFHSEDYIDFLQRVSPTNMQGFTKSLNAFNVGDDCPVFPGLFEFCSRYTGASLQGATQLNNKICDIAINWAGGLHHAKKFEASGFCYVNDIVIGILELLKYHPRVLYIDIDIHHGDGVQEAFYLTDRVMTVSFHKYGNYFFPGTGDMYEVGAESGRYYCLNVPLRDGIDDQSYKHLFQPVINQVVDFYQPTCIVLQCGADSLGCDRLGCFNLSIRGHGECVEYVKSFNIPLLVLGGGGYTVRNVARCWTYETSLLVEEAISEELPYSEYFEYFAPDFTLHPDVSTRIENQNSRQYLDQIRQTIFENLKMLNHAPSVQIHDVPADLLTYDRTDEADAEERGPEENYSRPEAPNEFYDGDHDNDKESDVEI

The structures appear in SMILES notation.

Usually IC50 stands for the point on the concentration scale where inhibition reaches its midpoint.

Sequence of Histone deacetylase 1 (Q13547 whole entry): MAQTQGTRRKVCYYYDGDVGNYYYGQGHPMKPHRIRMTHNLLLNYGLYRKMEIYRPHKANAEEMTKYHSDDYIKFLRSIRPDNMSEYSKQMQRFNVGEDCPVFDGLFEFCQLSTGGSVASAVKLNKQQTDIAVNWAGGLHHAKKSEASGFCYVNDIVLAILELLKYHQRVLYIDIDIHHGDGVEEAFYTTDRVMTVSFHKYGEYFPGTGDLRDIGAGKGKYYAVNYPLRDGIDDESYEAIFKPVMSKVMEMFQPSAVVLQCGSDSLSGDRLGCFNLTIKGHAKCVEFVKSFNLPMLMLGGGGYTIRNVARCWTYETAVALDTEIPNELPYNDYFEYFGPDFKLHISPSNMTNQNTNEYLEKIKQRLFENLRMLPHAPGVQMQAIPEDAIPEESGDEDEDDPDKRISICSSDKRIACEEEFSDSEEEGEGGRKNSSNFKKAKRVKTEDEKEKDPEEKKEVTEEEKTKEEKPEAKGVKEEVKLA

With `C=CCCC(=O)Nc1ccc(C(=O)N2CCc3nc(C(=O)NO)sc3C2)cc1`, the IC50 stood at 0.39 µM in experiment [1], 9.7 µM in experiment [2] and 9.38 µM in experiment [3].
On the same counts, the results for `COc1ccc(/C=C/C(=O)Nc2ccc(C(=O)N3CCc4nc(C(=O)NO)sc4C3)cc2)cc1` are 0.45 µM, 22.5 µM and 16.1 µM.
For `O=C(Nc1ccc(C(=O)N2CCc3nc(C(=O)NO)sc3C2)cc1)c1ccc(-c2ccccc2)s1`, the values for the IC50 in experiment [1], in experiment [2] and in experiment [3] were 0.12 µM, 2.59 µM and 2.66 µM, respectively.
For the compound `C=CCCC(=O)NCCCN1CCc2nc(C(=O)NO)sc2C1`, in experiment [1], the IC50 worked out at 58.7 µM.
Take `O=C(/C=C/c1ccccc1)NCCCN1CCc2nc(C(=O)NO)sc2C1`: the figures for the IC50 in experiment [1], in experiment [2] and in experiment [3] were 13.5 µM, 39.4 µM and 13.5 µM, respectively.
For the compound `COc1ccc(/C=C/C(=O)NCCCN2CCc3nc(C(=O)NO)sc3C2)cc1`, the half-maximal inhibitory concentration (IC50) came to 8.77 µM in experiment [1], 10.3 µM in experiment [2] and 6.62 µM in experiment [3].
In the same order, the values of `O=C(NCCCN1CCc2nc(C(=O)NO)sc2C1)c1ccc(-c2ccccc2)s1` are 3.39 µM, 5.67 µM and 5.09 µM.
For the compound `C=CCCC(=O)NCCCCN1CCc2nc(C(=O)NO)sc2C1`, in experiment [1], the IC50 came out at 24.7 µM.
Regarding `O=C(/C=C/c1ccccc1)NCCCCN1CCc2nc(C(=O)NO)sc2C1`, the results for the IC50 in experiment [1], in experiment [2] and in experiment [3] were 23.2 µM, 40.1 µM and 26.4 µM, respectively.
On the same counts, the results for `COc1ccc(/C=C/C(=O)NCCCCN2CCc3nc(C(=O)NO)sc3C2)cc1` are 9.55 µM, 35.1 µM and 34.1 µM.
With `O=C(NCCCCN1CCc2nc(C(=O)NO)sc2C1)c1ccc(-c2ccccc2)s1`, the IC50 in experiment [1] stood at 2.69 µM; in experiment [2], 6.08 µM; in experiment [3], 4.89 µM.
Turning to `C=CCCC(=O)Nc1ccc(C(C)N2CCc3nc(C(=O)NO)sc3C2)cn1` (centres undefined), the IC50 in experiment [1] was 13.5 µM; in experiment [2] it was 65.7 µM; in experiment [3], 19.2 µM.
In the same order, the values of `CC(c1ccc(NC(=O)/C=C/c2ccccc2)nc1)N1CCc2nc(C(=O)NO)sc2C1` (centres undefined) are 1.07 µM, 6.8 µM and 4.8 µM.
On the same counts, the results for `COc1ccc(/C=C/C(=O)Nc2ccc(C(C)N3CCc4nc(C(=O)NO)sc4C3)cn2)cc1` (centres undefined) are 1.55 µM, 6.8 µM and 5.7 µM.
On the same counts, the results for `CC(c1ccc(NC(=O)c2ccc(-c3ccccc3)s2)nc1)N1CCc2nc(C(=O)NO)sc2C1` (centres undefined) are 1.33 µM, 2.96 µM and 1.94 µM.
For `CC(C)N(C(=O)/C=C/c1ccccc1)c1cccc(CN2CCc3nc(C(=O)NO)sc3C2)c1`, the 50% inhibitory concentration (IC50) in experiment [1] came to 1.22 µM; in experiment [2] it was 11.5 µM; in experiment [3], 2.19 µM.

The record behind these values is ChEMBL document CHEMBL2046379, “CCLab--a multi-objective genetic algorithm based combinatorial library design software and an application for histone deacetylase inhibitor design” (Bioorg Med Chem Lett, 2012).
